Experimental data taken from patent publication US20160067161A1, “COSMETIC OR PHARMACEUTICAL COMPOSITION FOR RESISTING SKIN AGEING THROUGH AN ANTI-INFLAMMATORY ACTION” (GIULIANI S.P.A., priority 2013, published 2016).

Columns and labels:
[1] = test system: NCTC 2544 cells; assay: ROS antioxidant test (DCFH-DA spectrofluorometry) on NCTC 2544 cells; type: cell-based, human; settings: 500 μM, 1.5 hours (FIG. 3); for decrease in intracellular concentration of ROS produced compared with H2O2 control: test compound at 500 nM, 1 μM, 1 mM, α-tocopherol 250 μg/ml (580 μM)
Excerpt: Samples of a compound of the invention, N^1-methylspermidine trihydrochloride salt, i.e. N-(3-aminopropyl)-N^1-methyl-1,4-butanediamine 3HCl, were subjected to the following antioxidant test to reactive oxygen species (ROS).
The production of ROS was monitored spectrofluorometrically using 2′,7′-dichlorofluorescein diacetate (DCFH-DA), as described by Tobi et al. (Tobi S E, Paul N, T McMillan J. J Photochem Photobiol, B 2000: 57: 102-112).
The NCTC 2544 cells (about 80% confluence) were detached with trypsin/EDTA and seeded at a density of 5×10^4 cells per well in 96-well plates. Subsequently, the cells were treated with samples of N^1-methylspermidine, at the following concentrations: 500 nM, 1 μm and 500 μm, 1 mM (final concentration in the culture medium).
α-tocopherol (250 μg/ml, 580 μm) was used as a comparison of the antioxidant activity.
The plates were incubated at 37° C. in 5% CO2 for 1.5 hours. Cells cultured on basal medium with 2.5% FBS were used as a control.
The results are shown in the graph of FIG. 3, wherein N^1-methylspermidine trichydrochloride salt is for brevity indicated as ‘methylspermidine’.

[2] = test system: TNF-α; assay: Anti-inflammatory test: TNF-α gene expression by qRT-PCR in LPS-treated NCTC2544 keratinocytes; type: cell-based, human; settings: for TNF-α expression: NCTC2544 cells + LPS 5 μg/ml, 16 hours of treatment
Method: An immortalized line of human keratinocytes NCTC2544 is used (Perry, V. P., Sanford, K. K., Evans, V. J., Hyatt, G. W., Earle, W. R., 1957: Establishment of clones of epithelial cells from human skin. J Natl Cancer Inst. 18 (5): 709-717) cultured in sterile flasks ([…]), incubated at 37° C. in a humid atmosphere at 5% CO2 in MEM (Minimum Essential Medium) added with bovine fetal serum (FBS), 2 mm L-glutamine, 1% non-essential amino acids, in the presence of 1% penicillin and streptomycin.
A 1:3 split is done every 2 days upon achieving the monolayer by washing with 1× PBS (phosphate buffer without Ca^2+ and Mg^2+) and detachment of cells with a trypsin-EDTA solution at 37° C. for 2 minutes.
Negative control: human keratinocytes NCTC2544 cultured in EMEM (EBSS) at 2.5% FBS, supplemented with 1% L-glutamine 2 mM, 1% solution of amino acids and 1% mixture of penicillin (10,000 U/ml)/streptomycin (10,000 Ug/ml) at 37° C., 5% CO2. Positive control: human keratinocytes NCTC2544 treated with lipopolysaccharide (LPS, 5 μg/ml) in EMEM (EBSS) at 2.5% FBS, supplemented with 1% L-glutamine 2 mM, 1% solution of amino acids and 1% mixture of penicillin (10,000 U/ml)/streptomycin (10,000 Ug/ml) at 37° C., 5% CO2.
The gene expression of TNF-α on NCTC2544 cells treated with the samples was evaluated by qRT-PCR.
The analysis of gene expression involves four steps:
1. Treatment of cells with the samples for 16 and 24 hours;
3. Retrotranscription in cDNA;
In the experimental conditions, in relation with the results obtained in a previous MTT test, samples of spermidine and N^1-methyl-spermidine were tested at the following concentrations: 1 μM, 500 nM and 1 mM (final concentration in the medium). Said positive and negative controls were also tested.
When the human keratinocyte cells NCTC 2544 have reached about 80% confluence, they are detached with trypsin/EDTA and seeded at a density of 1×10^6 cells/ml in 12-well plates and incubated at 37° C., 5% CO2 (24 h).
The above samples of spermidine and N^1-methyl-spermidine were dissolved in EMEM, supplemented with 2.5% FCS, 1% 2 mM L-glutamine, 1% NEAA solution and 1% penicillin (10,000 U/ml)/streptomycin ([…]).
The controls, containing only culture medium (negative control) and culture medium plus LPS ([…]) (positive control), were included in each plate. The cells were exposed to the action of the samples of spermidine and N^1-methyl-spermidine at the above concentrations of 1 μM, 500 nM and 1 mM: a total of six samples.
LPS at a concentration of 5 μg/ml was added to each well (except in the negative control). Each sample was tested in replicate.
With reference to the graphs in FIGS. 4 and 5, samples of further compounds of the invention as specified below were subjected to anti-inflammatory test on an immortalized line of human keratinocytes NCTC2544 substantially as described above, to the general part whereof reference shall be made.
The controls containing only culture medium (negative control) and culture medium plus LPS (5 μg/ml) (positive control), were included in each plate.
The cells were exposed to the action of samples of the compounds N^1-ethylspermidine, N^1-propylspermidine, N^1-isobutylspermidine at the concentrations of 1 nM and 1 μM.
The gene expression data were obtained by RT-PCR.

With `CN(CCCN)CCCCN.Cl.Cl.Cl` [N-(3-aminopropyl)-N^1-methyl-1,4-butanediamine 3HCl] the “antioxidant activity compared with α-tocopherol (580 μM)” value [1] was “higher antioxidant activity” and the “decrease in intracellular concentration of ROS produced compared with H2O2 control” value [1] was “decrease substantially comparable”.

`CN(CCCN)CCCCN` [N^1-methylspermidine, N-(3-aminopropyl)-N^1-methyl-1,4-butanediamine] was tested, and the “anti-inflammatory effects after 24 hours compared with 16 hours” value ([2]; 24 hours of treatment (FIG. 2)) was “remain almost unchanged”, the “anti-inflammatory effect compared with spermidine” value ([2]; 24 hours of treatment, 500 nM (FIG. 2)) was “significantly higher anti-inflammatory effect” and the TNF-α expression ([2]; 1 nM (FIG. 1)) was 7.94%. For the same molecule, the TNF-α expression ([2]; 500 nM (FIG. 1)) was 1.52% and the “anti-inflammatory effect (TNF-α gene expression)” value ([2]; all concentrations examined, 16 and 24 hours) was “anti-inflammatory effect”.

`NCCCCNCCCN` [spermidine, reference compound] showed a TNF-α expression ([2]; 1 nM (FIG. 1)) of 13.99%.

For `Cc1c(C)c2c(c(C)c1O)CC[C@@](C)(CCC[C@H](C)CCC[C@H](C)CCCC(C)C)O2` [α-tocopherol, reference compound], the “decrease in intracellular concentration of ROS produced compared with H2O2 control” value [1] was “decrease substantially comparable”.
